biological target: T1, Purified ERAP1(37-941)-10His (ERAP1) (Homo sapiens, UniProt Q9NZ08); experiment: ERAP1 mediated hydrolysis of an amide substrate measured in a biochemical system (10-mer decapeptide substrate); details: 10-mer substrate, 23° C. for 1 h, excitation 279 nm and emission 355 nm; read-out: IC50 vs Decapeptide WRVYEKC(Dnp)ALK-acid (where Dnp is Dinitrophenyl maleimide) (10-mer)
T1 construct: Purified ERAP1(37-941)-10His (ERAP1); 10His (C)
Summary of the method: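 ERAP1(37-941)-10His preincubated with compound in 25 mM Bis-tris propane, 0.05% HPMC, pH 7.75, then reacted 1 h at 23 °C with 10-mer WRVYEKC(Dnp)ALK (100 μM solution added in equal volume). Fluorescence read at ex 279/em 355 nm; IC50 from 4-parameter fit.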

T1 sequence (Q9NZ08 37-941): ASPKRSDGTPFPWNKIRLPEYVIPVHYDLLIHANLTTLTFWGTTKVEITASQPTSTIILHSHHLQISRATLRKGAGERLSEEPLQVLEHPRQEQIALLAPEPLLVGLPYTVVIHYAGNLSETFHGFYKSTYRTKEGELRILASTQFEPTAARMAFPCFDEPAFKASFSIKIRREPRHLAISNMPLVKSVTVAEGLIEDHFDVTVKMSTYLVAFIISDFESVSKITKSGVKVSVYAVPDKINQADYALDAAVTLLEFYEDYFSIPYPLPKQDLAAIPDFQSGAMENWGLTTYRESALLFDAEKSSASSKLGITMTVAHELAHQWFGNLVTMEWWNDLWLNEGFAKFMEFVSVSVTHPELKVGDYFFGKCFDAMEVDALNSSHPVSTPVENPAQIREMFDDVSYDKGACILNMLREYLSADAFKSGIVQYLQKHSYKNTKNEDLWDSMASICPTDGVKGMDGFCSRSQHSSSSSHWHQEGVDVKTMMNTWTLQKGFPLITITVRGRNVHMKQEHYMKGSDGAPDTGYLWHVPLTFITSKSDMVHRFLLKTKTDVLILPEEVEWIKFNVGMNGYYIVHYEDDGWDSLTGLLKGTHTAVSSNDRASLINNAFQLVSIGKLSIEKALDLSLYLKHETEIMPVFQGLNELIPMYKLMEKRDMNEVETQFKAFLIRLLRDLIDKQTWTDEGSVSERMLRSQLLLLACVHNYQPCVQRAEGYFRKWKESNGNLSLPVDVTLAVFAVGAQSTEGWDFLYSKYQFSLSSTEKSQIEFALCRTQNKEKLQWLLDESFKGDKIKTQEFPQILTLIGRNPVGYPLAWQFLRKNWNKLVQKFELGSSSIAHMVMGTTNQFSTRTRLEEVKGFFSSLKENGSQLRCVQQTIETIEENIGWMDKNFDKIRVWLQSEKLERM

IC50, < 0.5 µM:
Cc1oncc1-c1cc(NS(=O)(=O)c2cc(C(=O)O)ccc2C2CC2)c(-n2cccc2)cc1F [Example 202, 4-cyclopropyl-3-(N-(4-fluoro-5-(5-methylisoxazol-4-yl)-2-(pyrrol-1-yl)phenyl)sulfamoyl)benzoic acid]
O=C(O)c1ccc(C2CC2)c(S(=O)(=O)Nc2cc(-c3ccns3)c(Cl)cc2-n2cccc2)c1 [Example 203, 3-(N-(4-chloro-5-(isothiazol-5-yl)-2-(pyrrol-1-yl)phenyl)sulfamoyl)-4-cyclopropylbenzoic acid]
Cn1ncnc1-c1cc(NS(=O)(=O)c2cc(C(=O)O)ccc2C2CC2)c(-n2cccc2)cc1Cl [Example 204, 3-(N-(4-chloro-5-(1-methyl-1,2,4-triazol-5-yl)-2-(pyrrol-1-yl)phenyl)sulfamoyl)-4-cyclopropylbenzoic acid]
Cc1oncc1-c1cc(NS(=O)(=O)c2cc(C(=O)O)ccc2C2CC2)c(-n2cccc2)cc1Cl [Example 205, 3-(N-(4-chloro-5-(5-methylisoxazol-4-yl)-2-(pyrrol-1-yl)phenyl)sulfamoyl)-4-cyclopropylbenzoic acid]
O=C(O)c1ccc(C2CC2)c(S(=O)(=O)Nc2cc(-n3cnnn3)c(Cl)cc2-n2cccc2)c1 [Example 206, 3-(N-(4-chloro-2-(pyrrol-1-yl)-5-(tetrazol-1-yl)phenyl)sulfamoyl)-4-cyclopropylbenzoic acid]
O=C(O)c1ccc(C2CC2)c(S(=O)(=O)Nc2cc(-n3cnnn3)c(F)cc2-n2cccc2)c1 [Example 207, 4-cyclopropyl-3-(N-(4-fluoro-2-(pyrrol-1-yl)-5-(tetrazol-1-yl)phenyl)sulfamoyl)benzoic acid]
O=C(O)c1ccc(C2CC2)c(S(=O)(=O)Nc2cc(-n3cnnn3)ccc2-n2cccc2)c1 [Example 208, 3-(N-(2-(pyrrol-1-yl)-5-(tetrazol-1-yl)phenyl)sulfamoyl)-4-cyclopropylbenzoic acid]

Reference: patent US12023333B2, “Phenyl-sulfamoyl.benzoyc acids as ERAP1 modulators” (GREY WOLF THERAPEUTICS LIMITED, priority 2019, dated 2024)
